Results as given in ChEMBL document CHEMBL5143528, “Heat shock protein 90 (Hsp90)/Histone deacetylase (HDAC) dual inhibitors for the treatment of azoles-resistant Candida albicans” (Eur J Med Chem, 2022).
pIC50: −log10 of the molar value. Calls of active or inactive are those of the source. The rule behind the calls is not given here.

Experiments:
[1] = Cytotoxicity against human HaCaT cells assessed as inhibition of cell growth; assay type: toxicity, cell-based
[2] = Toxicity in ICR mouse infected with azole-resistant Candida albicans 0304103 assessed as reduction in survival time at 10 mg/kg, ip administered once daily for 5 days; assay type: organism-based; conditions: in vivo, 120 h, time 5 day
[3] = Inhibition of fungal HDAC using Boc-Lys (acetyl)-AMC as substrate preincubated for 12 hrs followed by substrate addition and measured after 6 hrs by fluorescence-based analysis; parameters: species or system Fungi
[4] = system: Candida albicans; assay type: functional, 0304103; conditions: time 48 hrs
Description: Synergistic antifungal activity against azole-resistant Candida albicans 0304103 assessed as fractional inhibitory concentration index in presence of fluconazole incubated for 48 hrs by CLSI based checkerboard microdilution assay

[5] = system: A549; experiment: Cytotoxicity against human A549 cells assessed as inhibition of cell growth; assay type: functional, cell-based
[6] = system: HEL; experiment: Cytotoxicity against human HEL cells assessed as inhibition of cell growth; assay type: functional, cell-based
[7] = system: Candida albicans; assay type: functional, 0304103; conditions: time 48 hrs; remark: listed apart in the source
Description: Synergistic antifungal activity against azole-resistant Candida albicans 0304103 assessed as fractional inhibitory concentration in presence of fluconazole incubated for 48 hrs by CLSI based checkerboard microdilution assay

[8] = system: Candida albicans; experiment: microbe, parasite or virus in culture; assay type: functional; conditions: 0304103, time 48 hrs
Description: Antifungal activity against azole-resistant Candida albicans 0304103 assessed as fungal growth inhibition incubated for 48 hrs by CLSI based checkerboard microdilution assay

[9] = system: Candida albicans; assay type: functional, 0304103; conditions: time 48 hrs; remark: listed apart in the source
Description: Synergistic antifungal activity against azole-resistant Candida albicans 0304103 assessed as fractional inhibitory concentration incubated for 48 hrs by CLSI based checkerboard microdilution assay

[10] = system: Candida albicans; experiment: Inhibition of biofilm formation in azole-resistant Candida albicans 0304103 assessed as downregulation of BCR1 expression at 64 ug/ml by RT-PCR analysis; assay type: functional, organism-based; conditions: dose 64.0 µg/ml
[11] = system: Candida albicans; experiment: Inhibition of biofilm formation in azole-resistant Candida albicans 0304103 at 64 ug/ml incubated for 24 hrs by XTT reduction assay; assay type: functional, organism-based; conditions: dose 64.0 µg/ml
[12] = system: Candida albicans; experiment: Inhibition of biofilm formation in azole-resistant Candida albicans 0304103 assessed as downregulation of […] expression at 64 ug/ml by RT-PCR analysis; assay type: functional, organism-based; conditions: dose 64.0 µg/ml
[13] = system: Candida albicans; experiment: Inhibition of biofilm formation in azole-resistant Candida albicans 0304103 assessed as downregulation of EAP1 expression at 64 ug/ml by RT-PCR analysis; assay type: functional, organism-based; conditions: dose 64.0 µg/ml
[14] = system: Candida albicans; experiment: Inhibition of biofilm formation in azole-resistant Candida albicans 0304103 assessed as downregulation of HWP1 expression at 64 ug/ml by RT-PCR analysis; assay type: functional, organism-based; conditions: dose 64.0 µg/ml
[15] = Inhibition of fungal HSP90 incubated for 6 hrs in presence of FITC-Geldanamycin by fluorescence polarization analysis; parameters: species or system Fungi
[16] = system: Candida albicans; experiment: Upregulation of ERG11 expression in azole-resistant Candida albicans 0304103 at 8 ug/ml by RT-PCR analysis; assay type: functional; conditions: dose 8.0 µg/ml
[17] = target: Heat shock protein HSP90 (Homo sapiens, UniProt P07900+P08238); experiment: Inhibition of human HSP90; assay type: protein assay
[18] = system: Candida albicans; experiment: Downregulation of ERG11 expression in azole-resistant Candida albicans 0304103 at 8 ug/ml in presence of fluconazole by RT-PCR analysis; assay type: functional; conditions: dose 8.0 µg/ml
[19] = system: Candida albicans; experiment: (§1) Antifungal activity against azole-resistant Candida albicans 0304103 infected in ICR mouse assessed as reduction in fungal burden in kidney by measuring smooth kidney tissue at 10 mg/kg, ip administered once daily for 5 days in presence of fluconazole by Periodic acid-Schiff staining based analysis; assay type: functional, organism-based; conditions: time 5.0 day
[20] = system: Candida albicans; experiment: as §1, with “neat and dense arrangement of cells” for “smooth kidney tissue”; assay type: functional, organism-based; conditions: time 5.0 day
[21] = system: Candida albicans; experiment: Downregulation of CDR1 expression in azole-resistant Candida albicans 0304103 at 8 ug/ml in presence of fluconazole by RT-PCR analysis; assay type: functional; conditions: dose 8.0 µg/ml
[22] = system: Candida albicans; experiment: Antifungal activity against azole-resistant Candida albicans 0304103 infected in ICR mouse assessed as reduction in fungal burden in kidney at 10 mg/kg, ip administered once daily for 5 days in presence of fluconazole; assay type: functional, organism-based; conditions: time 5.0 day
[23] = target: Histone deacetylase; assay type: protein assay, Homo sapiens
[24] = system: Candida albicans; experiment: as §1, with “assessed as assessed as reduction in” for “assessed as reduction in”, “by measuring reduction in fungal invasion at 10” for “by measuring smooth kidney tissue at 10”; assay type: functional, organism-based; conditions: time 5.0 day

SMILES | fractional inhibitory concentration index (FICI) [4] | pIC50 [5] | pIC50 [6] | FIC [7] [µg/mL] | MIC80 [8] [µg/mL] | FIC [9] [µg/mL] | also measured
O=C(CCCCCCC(=O)Nc1ccccc1)NO [VORINOSTAT] |  |  |  |  |  |  | pIC50 [1]: 5.73; Activity [2]: Toxic; pIC50 [3]: 5.44
CC(C)c1cc(-c2n[nH]c(=O)n2-c2cccc(NC(=O)CCCCCC(=O)NO)c2)c(O)cc1O | 1.5 | 5.80 | 5.80 | 32 | > 64 | 64 | 
CC(C)c1cc(-c2n[nH]c(=O)n2-c2ccc(C(=O)NCCCC(=O)NO)cc2)c(O)cc1O | 0.266 | 5.34 | 5.34 | 1 | > 64 | 16 | 
CC(C)c1cc(-c2n[nH]c(=O)n2-c2cccc(C(=O)NCCCCCCC(=O)NO)c2)c(O)cc1O | 0.141 | 5.34 | 5.34 | 1 | > 64 | 8 | pIC50 [1]: < 5.21; inhibition [10]: Active; inhibition [11]: Active; inhibition [12]: Active; inhibition [13]: Active; inhibition [14]: Active
CC(C)c1cc(-c2n[nH]c(=O)n2-c2cccc(NC(=O)CCCCCCC(=O)NO)c2)c(O)cc1O | 0.156 | 5.80 | 5.80 | 2 | > 64 | 8 | 
CC(C)c1cc(-c2n[nH]c(=O)n2-c2cccc(C(=O)NCCCCC(=O)NO)c2)c(O)cc1O | 1.25 | 5.34 | 5.34 | 64 | > 64 | 16 | 
CC(C)c1cc(-c2n[nH]c(=O)n2-c2ccc(NC(=O)CCCCCC(=O)NO)cc2)c(O)cc1O | 0.25 | 7.62 | 7.62 | 8 | > 64 | 8 | 
CC(C)c1cc(-c2n[nH]c(=O)n2-c2ccc3c(ccn3C)c2)c(O)cc1O [GANETESPIB] |  |  |  | 1 | > 64 | 0.5 | pIC50 [1]: > 7.82; Activity [2]: Toxic; pIC50 [15]: 6.18
CC(C)c1cc(-c2n[nH]c(=O)n2-c2cccc(NC(=O)CCCCC(=O)NO)c2)c(O)cc1O | 1.5 | 5.80 | 5.80 | 32 | > 64 | 64 | 
CC(C)c1cc(-c2n[nH]c(=O)n2-c2ccc(NC(=O)CCCCCCC(=O)NO)cc2)c(O)cc1O | 0.188 | 7.62 | 7.62 | 4 | > 64 | 8 | 
CC(C)c1cc(-c2n[nH]c(=O)n2-c2ccc(C(=O)NCCCCCC(=O)NO)cc2)c(O)cc1O | 2 | 5.34 | 5.34 | >64 | > 64 | >64 | 
CC(C)c1cc(-c2n[nH]c(=O)n2-c2ccc(NC(=O)CCCCC(=O)NO)cc2)c(O)cc1O | 0.5 | 7.62 | 7.62 | 16 | > 64 | 16 | 
OC(Cn1cncn1)(Cn1cncn1)c1ccc(F)cc1F |  |  |  |  |  |  | Activity [16]: Active
CC(C)c1cc(-c2n[nH]c(=O)n2-c2ccc(C(=O)NCCCCCCC(=O)NO)cc2)c(O)cc1O | 0.266 | 5.34 | 5.34 | 1 | > 64 | 16 | 
CC(C)c1cc(-c2n[nH]c(=O)n2-c2cccc(C(=O)NCCCCCC(=O)NO)c2)c(O)cc1O | 1.25 | 5.34 | 5.34 | 64 | > 64 | 16 | 
CC(C)c1cc(-c2n[nH]c(=O)n2-c2ccc(NC(=O)CCCC(=O)NO)cc2)c(O)cc1O | 0.078 | 7.62 | 7.62 | 1 | > 64 | 4 | 
CC(C)c1cc(-c2n[nH]c(=O)n2-c2ccc(C(=O)NCCCCCCCC(=O)NO)cc2)c(O)cc1O | 0.266 | 5.34 | 5.34 | 1 | > 64 | 16 | pIC50 [1]: < 5.21; IC50 [17]: 19.52 µM; inhibition [10]: Active; Activity [18]: Active; Activity [19]: Active; inhibition [11]: Active; Activity [20]: Active; Activity [21]: Active; pIC50 [3]: 6.04; inhibition [12]: Active; inhibition [13]: Active; Activity [22]: Active; pIC50 [15]: 6.08; IC50 [23]: 3 µM; inhibition [14]: Active; Activity [24]: Active
CNC(=O)CCCCCCCNC(=O)c1cccc(-n2c(-c3cc(C(C)C)c(O)cc3O)n[nH]c2=O)c1 | 0.156 | 5.34 | 5.34 | 2 | > 64 | 8 | pIC50 [1]: < 5.21
CC(C)c1cc(-c2n[nH]c(=O)n2-c2ccc(C(=O)NCCCCC(=O)NO)cc2)c(O)cc1O | 0.188 | 5.34 | 5.34 | 8 | > 64 | 4 | 
CC(C)c1cc(-c2n[nH]c(=O)n2-c2cccc(C(=O)NCCCC(=O)NO)c2)c(O)cc1O | 2 | 5.34 | 5.34 | 64 | > 64 | 64 | 
